Where a SMILES comes first, the peptide text is derived from it.
Experiments:
C. albicans NCPF 3153 = assay: Murine invasive candidiasis, i.p. peptide treatment; format: in vivo, BALB/c mice; conditions: day 5 post-infection; 200 µg peptide i.p. x3; saline 160.3±46.6
Procedure: Animal experiments were approved by the Institutional Review Board of the School of Medicine and Odontology at the University of the Basque Country, Spain. Female BALB/c mice, 8-weeks old (11–12 animals/group), were infected intravenously with 5×10^5 C. albicans NCPF 3153 yeast cells suspended in 0.1 mL saline. Mice were treated i.p. with 200 µg of mAb C7 L1 and mAb C7/pc42 H1 and H2 for 3 days starting on day 0, and 4 h after the fungal challenge, and at 24 and 48 h thereafter. Control mice were injected with saline (same treatment schedule as those treated with the CDRs). Protection was evaluated by monitoring animal survival for 20 days. The mean survival time and numbers of CFU of C. albicans in infected tissues were calculated as reported previously.
The Kaplan-Meier log rank test was applied to survival data. Data on CFU in infected tissues were analyzed by Student's t test. p values of 0.05 were considered significant.

R5 HIV-1 = format: cell-based; conditions: 10 µg/ml; for % inhibitory activity (10 µg/ml), endogenous HIV-1 replication: ex vivo, day 10 of culture, p24, mean of 3 determinations
Procedure: (§3) Briefly, for endogenous HIV-1 replication assays peripheral blood mononuclear cells (PBMCs) from R5 HIV-1-infected patients characterized by high viral RNA titers in plasma and cell-associated viremia were cultured in 96-well plates at 1×10^6 cells/mL in RPMI 1640 medium with 10% fetal calf serum (FCS) and 20 U/mL of rIL-2. Exogenous rIL-2 was added every 3–4 days. Cultures were treated with synthetic mAb CDRs and mAb C7/pc42 H1 asd at 10 µg/mL during the time of culture. Virus production on days 5 and 10 was assayed in the supernatants using ultrasensitive Alliance® HIV-1 p24 ELISA kit (Perkin Elmer); p24 Ag in the supernatants of untreated cultures corresponded to 100% of viral production. For exogenous infection assays, PHA-stimulated PBMCs obtained from healthy individuals were infected with BaL (R5) or IIIB (X4) HIV-1 strain at a median tissue culture infective dose (TCID50) of 500 TCID50/ml. After 2 h of adsorption, the cells were washed, suspended at 2×10^5 cells/ml in medium and cultured in 96-well cultures plates. At time zero of infection, synthetic peptides were added to the cultures at 10 µg/ml and were maintained throughout the experiment. All assays were performed in triplicate. Virus production was assayed 10 days after infection in the supernatants of HIV-1-infected PBMCs by p24 assay.

HIV-1 IIIB (X4) = assay: In vitro exogenous HIV-1 infection of PHA-stimulated PBMCs, IIIB strain (p24 assay); format: cell-based; conditions: day 10, p24, mean of 3 determinations
Procedure: as §3

Candida albicans UP10 = format: cell-based; conditions: for Anti-Candida activity (%) at 100 µg/mL: CDR peptides, 100 µg/mL in distilled water, 37°C, 6 h, CFU after 48–72 h, triplicate, C. albicans UP10
Procedure: The alanine substituted derivatives (asd), defined according to the position held by the alanine-substituted aminoacid, were tested in the same biological assays to critically establish the functional relevance of each residue [5]. In vitro microbicidal activity of CDR peptides and selected asd against C. albicans UP 10 (clinical isolate from the fungi collection of the University of Parma) and C. albicans NCPF 3153 (National Collection of Pathogenic Fungi, Bristol, UK) were used for the in vitro experiments.
The microbicidal activity of synthetic CDRs against C. albicans strains was preliminarily evaluated by testing 100 µg/mL of each synthetic peptide by colony forming unit (CFU) assays as previously described [5]. Briefly, 10 µL of a distilled water suspension containing ∼5×10^4/mL germinating yeast cells were added to 90 µL of distilled water containing the synthetic peptide to be tested. Yeast suspensions were incubated at 37°C for 6 h. After incubation, the cell suspensions were plated on Sabouraud dextrose agar, incubated at 30°C and observed for CFU determination after 48–72 hours. Each assay was carried out in triplicate. […] EC50 was calculated by nonlinear regression analysis using Graph Pad Prism 4.01 software, San Diego, CA, USA.

HIV-1 BaL (R5) = assay: In vitro exogenous HIV-1 infection of PHA-stimulated PBMCs, BaL strain (p24 assay); format: cell-based; conditions: day 10, p24, mean of 3 determinations
Procedure: as §3

HUVEC = assay: In vitro Matrigel angiogenesis assay; format: cell-based, human; conditions: peptides at 1 mM, C7/pc42 H2 at 50 µM; 18 h, 37°C; triplicate wells
Procedure: Matrigel™ Matrix (B&D Biosciences, Bedford, MA, USA) was thawed on ice, added (10 µL/well) to coat 96-well plates, and allowed to polymerize for 1 h at 37°C. Human umbilical vein endothelial cells (HUVEC) (5×10^3cells/well) were added alone or mixed with mAb C7 CDR peptides in 100 µL of RPMI medium supplemented with 0.2% of FCS in each well. All peptides were used at 1 mM, with the exception of mAb C7/pc42 H2 that was used at 50 µM. The plates were incubated at 37°C for 18 h and images were captured at 8× magnification with a Sony Cyber-shot camera coupled to a light microscope. The number of pro-angiogenic structures (closed rings formed at a given time by endothelial cell sprouting) was counted from 3 different wells, and the average value determined in each system, [45]. The assay was repeated at least three times.

[1] = test system: B16F10-Nex2 murine melanoma cells; format: cell-based; conditions: 12 h
SKmel-28 = format: cell-based, human
Procedure: (§1) Murine B16F10-Nex2 melanoma cells (cloned at the Experimental Oncology Unit, Federal University of São Paulo, UNIFESP), and human SKmel28 and SKmel25 human melanoma cell lines originally obtained from the Memorial Sloan Kettering Cancer Center, New York, were cultured at 37°C, under humid atmosphere and 5% CO2, in RPMI-1640 medium with 10 mM N-2-hydroxyethylpiperazine-N2 ethanesulphonic acid (HEPES), 24 mM sodium bicarbonate, 40 mg/L gentamycin, pH 7.2 and 10% FCS.
(§2) Synthetic CDRs, scrambled peptides (controls), and […] of mAb C7/pc42 H2, selected for the highest cytotoxic activity, were diluted from 1 mM to 0.05 mM in RPMI with 10% FCS and incubated with B16F10-Nex2, SKmel28 and SKmel25 cells (5×10^3 cells/well) in 100 µL per well for 12 h at 37°C. Each peptide was tested in triplicate. After 12 h, the cytotoxic activities of the peptides were determined by measuring cell viability by Trypan Blue exclusion.

SKmel-25 = format: cell-based, human
Procedure: as §1, §2

Compound	CFU counts in kidney tissue (C. albicans NCPF 3153)	inhibition of R5 HIV-1 replication in treated cultures (R5 HIV-1; ex vivo conditions)	% inhibitory activity (10 µg/ml), endogenous HIV-1 replication (R5 HIV-1)	% inhibitory activity (10 µg/ml), exogenous HIV-1 replication, IIIB (HIV-1 IIIB (X4))	Anti-Candida activity (%) at 100 µg/mL (Candida albicans UP10)	% inhibitory activity (10 µg/ml), exogenous HIV-1 replication, BaL (HIV-1 BaL (R5))	endothelial cell sprouting on Matrigel (HUVEC)	EC50 (Candida albicans UP10; UP10, 6 h)	EC50 [1]	cytotoxicity to human melanoma cell line SKmel-28 (SKmel-28)	cytotoxicity to human melanoma cell line SKmel-25 (SKmel-25)
GYYMH [C7/pc42 H1, synthetic peptide identical to heavy chain CDR H1 shared by mAb C7 and mAb pc42]	119.6±35.5	> 50%	58%	0%	69.2%	24%					
WASTRES [C7 L2, synthetic peptide identical to light chain CDR L2 of mouse mAb C7]			38%	4%	49.8%	59%	inhibited endothelial cell sprouting				
CC[C@H](C)[C@H](NC(=O)[C@@H](N)Cc1ccc(O)cc1)C(=O)N[C@@H](CO)C(=O)N[C@@H](CS)C(=O)N[C@@H](Cc1ccc(O)cc1)C(=O)N[C@@H](CC(N)=O)C(=O)NCC(=O)N[C@@H](C)C(=O)N[C@H](C(=O)N[C@@H](CO)C(=O)N[C@@H](Cc1ccc(O)cc1)C(=O)N[C@@H](CC(N)=O)C(=O)N[C@@H](CCC(N)=O)C(=O)N[C@@H](CCCCN)C(=O)N[C@@H](Cc1ccccc1)C(=O)N[C@@H](CCCCN)C(=O)O)[C@@H](C)O [C7/pc42 H2] (H-YISCYNGATSYNQKFK-OH)								4.19 µM	53.5 µM	equally cytotoxic	equally cytotoxic
